Test results from US20130040813A1 (priority 2010, published 2013).
Read-outs that look alike come from different tables or passages of the source.

Experiments:
Type in all cases: cell-based
[1] = tested on: Botrytis cinerea; experiment: Microtest: activity against the grey mold pathogen Botrytis cinerea; details: single compound, 7 days; for inhibition of growth at 0.25 ppm / inhibition of growth at 1 ppm / inhibition of growth at 4 ppm: Botrytis cinerea, 168 h, read-out: Observed efficacy
[2] = tested on: Alternaria solani; experiment: Microtest: activity against the early blight pathogen Alternaria solani; details: single compound, 7 days
[3] = tested on: Phytophthora infestans; details: single compound, 7 days
[4] = tested on: Septoria tritici; experiment: Microtest: activity against the wheat leaf blotch pathogen Septoria tritici; details: single compound, 7 days
[5] = tested on: Pyricularia oryzae; experiment: microbe, parasite or virus in culture
[6] = Zymoseptoria tritici, 168 h, 0.063 ppm, read-out: Observed efficacy
[7] = Zymoseptoria tritici, 168 h, 0.25 ppm, read-out: Observed efficacy
[8] = Pyricularia oryzae, 168 h, read-out: Observed efficacy
[9] = Zymoseptoria tritici, 168 h, read-out: Observed efficacy

Structure (SMILES)	Observed efficacy ([2]; 1 ppm)	inhibition of growth at 1 ppm [1]	inhibition of growth at 4 ppm [1]	Observed efficacy ([3]; 1 ppm)	inhibition of growth at 0.063 ppm [4, 6]	inhibition of growth at 0.25 ppm [4, 7]	inhibition of growth at 0.016 ppm [5, 8]	inhibition of growth at 0.063 ppm [5, 8]	inhibition of growth at 0.25 ppm [5, 8]	inhibition of growth at 1 ppm [4, 9]	other results
Fc1ccc([C@]2(Cn3cncn3)O[C@H]2c2ccccc2Cl)cc1 (racemic) [II-4, Epoxiconazole, reference compound]	–	–	–	–	–	–	–	–	–	–	inhibition of growth at 0.25 ppm ([1]; 0.25 ppm): 40%
Fc1ccc(F)c2c(NCCc3ccc(Oc4cc(C(F)(F)F)ncn4)cc3)ncnc12 [Compound I-3, (5,8-Difluoro-quinazolin-4-yl)-{2-[4-(6-trifluoromethyl-pyrimidin-4-yloxy)-phenyl]-ethyl}-amine]	35%	22%	35%	47%	30%	33%	34%	45%	43%	–	Observed efficacy ([2]; 0.25 ppm): 38%; inhibition of growth at 4 ppm [5, 8]: 72%
Fc1ccc(F)c2c(NCCc3ccc(Oc4cc(C(F)(F)F)ccn4)cc3)ncnc12 [Compound I-5, (5,8-Difluoro-quinazolin-4-yl)-{2-[4-(4-trifluoromethyl-pyridin-2-yloxy)-phenyl]-ethyl}-amine]	38%	14%	22%	49%	37%	40%	36%	54%	59%	–	Observed efficacy ([2]; 0.25 ppm): 37%
COc1cc(CCNc2ncnc3c(F)ccc(F)c23)ccc1Oc1ncc(C(F)(F)F)cc1Cl [Compound I-17, (5,8-Difluoro-quinazolin-4-yl)-{2-[4-(3-chloro-5-trifluoromethyl-pyridin-2-yloxy)-3-methoxy-phenyl]-ethyl}-amine]	26%	4%	11%	42%	–	30%	–	14%	36%	33%	inhibition of growth at 4 ppm [5, 8]: 69%
COc1cc(CCNc2ncnc3c(F)ccc(F)c23)ccc1Oc1cc(C(F)(F)F)ccn1 [Compound I-18, (5,8-Difluoro-quinazolin-4-yl)-{2-[4-(4-trifluoromethyl-pyridin-2-yloxy)-3-methoxy-phenyl]-ethyl}-amine]	44%	11%	24%	50%	41%	44%	41%	49%	54%	44%	Observed efficacy ([2]; 0.25 ppm): 43%
COc1cc(CCNc2ncnc3c(F)cc(F)c(F)c23)ccc1Oc1cc(C(F)(F)F)ccn1 [Compound I-19, (5,6,8-Trifluoro-quinazolin-4-yl)-{2-[4-(4-trifluoromethyl-pyridin-2-yloxy)-3-methoxy-phenyl]-ethyl}-amine]	40%	12%	15%	47%	40%	–	29%	51%	53%	41%	inhibition of growth at 4 ppm [5, 8]: 71%
CO/C=C(/C(=O)OC)c1ccccc1Oc1cc(Oc2ccccc2C#N)ncn1 [II-1, Azoxystrobin, reference compound]	–	–	–	–	–	–	–	–	–	–	Observed efficacy ([1]; 0.25 ppm): 12%; Observed efficacy ([4]; 0.063 ppm): 54%; Observed efficacy ([4]; 0.25 ppm): 73%; Observed efficacy ([5]; 0.004 ppm, single compound, 7 days): 12%
Cn1cc(C(=O)Nc2ccc(F)cc2-c2ccc(Cl)c(Cl)c2)c(C(F)F)n1 [II-2, Bixafen, reference compound]	–	–	–	–	–	–	–	–	–	–	Observed efficacy ([4]; 0.063 ppm): 40%
N#Cc1c(Cl)c(Cl)c(Cl)c(C#N)c1Cl [II-3, Chlorothalonil, reference compound]	–	66%	–	–	–	–	–	–	–	–	–
CC(C)CC(C)c1sccc1NC(=O)c1cn(C)nc1C(F)(F)F (stereo not shown) [II-10, Penthiopyrad, reference compound]	–	–	–	–	–	–	–	–	–	–	inhibition of growth at 0.016 ppm ([4]; Zymoseptoria tritici, 168 h, 0.016 ppm, read-out: Observed efficacy): 30%
COC(=O)N(OC)c1ccccc1COc1ccn(-c2ccc(Cl)cc2)n1 [II-14, Pyraclostrobin, reference compound]	–	–	–	–	–	–	–	–	–	–	Observed efficacy ([2]; 0.016 ppm): 34%; inhibition of growth at 0.25 ppm ([1]; 0.25 ppm): 20%; Observed efficacy ([3]; 0.063 ppm): 25%; inhibition of growth at 0.004 ppm [4, 9]: 50%; inhibition of growth at 0.004 ppm [5, 8]: 39%
Fc1ccc(Oc2ccnc3cc(Cl)cc(Cl)c23)cc1 [II-15, Quinoxyfen, reference compound]	–	–	–	–	–	–	–	–	–	10%	inhibition of growth at 16 ppm [5, 8]: 9%
CON=C(C(=O)OC)c1ccccc1CON=C(C)c1cccc(C(F)(F)F)c1 [II-17, Trifloxystrobin, reference compound]	–	–	–	–	–	–	24%	–	–	–	Observed efficacy ([2]; 0.063 ppm): 48%; inhibition of growth at 0.25 ppm ([1]; 0.25 ppm): 19%; inhibition of growth at 0.004 ppm [4, 9]: 40%
